This is an account of results in US20230411006A1, “METHOD FOR ASSESSING THE AREA UNDER THE CURVE OF AN IMMUNOSUPRESSANT AND ASSOCIATED METHOD AND SYSTEMS” (INSTITUT NATIONAL DE LA SANTE ET DE LA RECHERCHE MEDICALE, priority 2020, published 2023).

Each structure is given as a SMILES string. Read-outs that look alike come from different tables or passages of the source.

Data set [1] is described as follows: Mycophenolic acid interdose AUC0-12 h in ISBA requests (MPA plasma levels after MMF dose). The format is in vivo, human. The note with it: for AUC: human, plasma, oral, Median, read-out: Interdose AUC0_12 h. How it is done: For patients and data, the dataset was sequentially refined by selecting the requests where MPA plasma levels were measured using HPLC, including at least 3 times of sampling approximately 20 min (10 to 30 min, C20), 60 min (30 to 100 min, C1) and 180 min (140 to 220 min, C3) after dose intake. Actually, the 20, 60, 180 min is the optimal sampling schedule for MMF. A filter was applied to select the requests with an interdose of 12 h. The other predictors available were the morning dose of MMF, the time elapsed between transplantation and MPA plasma sampling, the type of transplant, the associated immunosuppressant and patient age.

Data set [2] is described as follows: Tacrolimus concentrations and interdose AUC in ISBA requests of renal transplant patients. Particulars: human, in vivo, oral; for concentration at 3 h: read-out: Concentration C3 at 3 h; for concentration at 1 h: read-out: Concentration C1 at 1 h; for C0: read-out: Through level C0. How it is done: Tacrolimus requests from ISBA website were extracted and cleaned using the tidyverse framework. Patient with a renal transplantation and tacrolimus concentrations measured using HPLC methods were selected. The requests including at least 3 sample times at 0 minutes (min), 60 min and 180 min after dose intake were selected with a range of selection of 30 min to 100 min for the 60 min and 140 min to 220 min for the 180 min (the 0, 60, 180 min is the optimal sampling schedule for Prograf® and Advagraf® while the optimal sampling times requested for Envarsus® is 0, 8 and 12 h after dose intake and this later formulation was not included in the analysis).
The dataset was split into two datasets according to the tacrolimus interdose and two independent prediction functions were developed, one for twice a day formulations (TAD; Prograf®) and one for once a day formulations (OAD; Advagraf®).
The present study used supervised learning to predict the inter-dose AUC for which the reference value have been obtained by MAP-BE in the ISBA website based on 3 concentrations.
The tacrolimus concentrations were binned into 3 theoretical time classes (concentrations at trough (C0 sampled at t=0 min), at 1 h (C1 sampled between 30 and 100 min) and at 3 h (C3 sampled between 140 and 220 min), leading to 3 columns per patient.

Turning to `COc1c(C)c2c(c(O)c1C/C=C(\C)CCC(=O)O)C(=O)OC2` [mycophenolic acid], the “Interdose AUC0_12 h” value came out at 163.62 mg·h/L in data set [1] (Maximum, TEST (N = 3219)); 181.39 mg·h/L in data set [1] (Maximum, TRAIN (N = 9658)); 3.19 mg·h/L in data set [1] (Minimum, TEST (N = 3219)); 1.12 mg·h/L in data set [1] (Minimum, TRAIN (N = 9658)). Besides, the AUC in data set [1] (TEST (N = 3219)) was determined as 39200 ng·h/mL; in data set [1] (TRAIN (N = 9658)) it was 39300 ng·h/mL.
For the compound `C=CC[C@@H]1/C=C(\C)C[C@H](C)C[C@H](OC)[C@H]2O[C@@](O)(C(=O)C(=O)N3CCCC[C@H]3C(=O)O[C@H](/C(C)=C/[C@@H]3CC[C@@H](O)[C@H](OC)C3)[C@H](C)[C@@H](O)CC1=O)[C@H](C)C[C@@H]2OC` [tacrolimus], the concentration at 3 h in data set [2] (Maximum, OAD, Test (n = 394)) came out at 17.9 ng/mL; in data set [2] (Maximum, OAD, Train (n = 1184)), 18.4 ng/mL; in data set [2] (Maximum, TAD, Test (n = 1236)), 16.9 ng/mL; in data set [2] (Maximum, TAD, Train (n = 3708)), 16.6 ng/mL; in data set [2] (Median, OAD, Test (n = 394)), 13 ng/mL; in data set [2] (Median, OAD, Train (n = 1184)), 13.9 ng/mL. For the same compound, the concentration at 3 h in data set [2] (Median, TAD, Test (n = 1236)) amounted to 12.8 ng/mL; in data set [2] (Median, TAD, Train (n = 3708)), 12.4 ng/mL; in data set [2] (Minimum, OAD, Test (n = 394)) it was 9.51 ng/mL; in data set [2] (Minimum, OAD, Train (n = 1184)), 9.8 ng/mL; in data set [2] (Minimum, TAD, Test (n = 1236)), 9.6 ng/mL; in data set [2] (Minimum, TAD, Train (n = 3708)), 9.3 ng/mL. The concentration at 1 h in data set [2] (Maxmum, OAD, Test (n = 394)) came to 17.1 ng/mL; in data set [2] (Maxmum, OAD, Train (n = 1184)), 18.4 ng/mL; in data set [2] (Maxmum, TAD, Test (n = 1236)) it was 21.7 ng/mL; in data set [2] (Maxmum, TAD, Train (n = 3708)), 21.4 ng/mL; in data set [2] (Median, OAD, Test (n = 394)), 12.3 ng/mL; in data set [2] (Median, OAD, Train (n = 1184)) it was 12.6 ng/mL. The concentration at 1 h came out at 15.4 ng/mL in data set [2] (Median, TAD, Test (n = 1236)); 14.7 ng/mL in data set [2] (Median, TAD, Train (n = 3708)); 8.6 ng/mL in data set [2] (Minimum, OAD, Test (n = 394)); 9 ng/mL in data set [2] (Minimum, OAD, Train (n = 1184)); 10.5 ng/mL in data set [2] (Minimum, TAD, Test (n = 1236)); 10.2 ng/mL in data set [2] (Minimum, TAD, Train (n = 3708)). Moreover, the AUC in data set [2] (Median, OAD, Test (n = 394), read-out: Interdose AuC) is 222 ng·h/mL; in data set [2] (Median, OAD, Train (n = 1184), read-out: Interdose AuC) it was 236 ng·h/mL; in data set [2] (Median, TAD, Test (n = 1236), read-out: Interdose AuC) it was 130 ng·h/mL; in data set [2] (Median, TAD, Train (n = 3708), read-out: Interdose AuC) it was 128 ng·h/mL; in data set [2] (OAD, cleaned ISBA datasets, read-out: interdose AUCs range) it was 44 to 698 ng·h/mL; in data set [2] (TAD, cleaned ISBA datasets, read-out: interdose AUCs range), 22 to 380 ng·h/mL. The C0 in data set [2] (Median, OAD, Test (n = 394)) was found to be 12.3 ng/mL; in data set [2] (Median, OAD, Train (n = 1184)), 12.6 ng/mL; in data set [2] (Median, TAD, Test (n = 1236)), 15.4 ng/mL; in data set [2] (Median, TAD, Train (n = 3708)), 14.7 ng/mL.
